≈ marks a conversion by molar mass, not a printed value. Entries after “also recorded” stand apart in the source; their conditions may differ.
What was measured:
[1] = test system: pS6K1 (p-p70 S6 Kinase (Thr389)) in MCF-7 cells; assay: AlphaLISA Ultra pS6K1 Assay; format: cell-based; conditions: Homo sapiens, 1.5 h; MCF7 cells, 90 min
How it was run: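 MCF-7 cells were seeded for 20–24 h, refed with fresh medium for 2 h, then treated with compound for 90 min at 0.5% final DMSO. Lysates were frozen at −80 °C, thawed and assayed by AlphaLISA with acceptor then donor beads, 2 h each.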

[2] = test system: pAKT (p-Akt 1/2/3 (Ser473)) in MCF-7 cells; assay: AlphaLISA Ultra pAKT Assay; format: cell-based; conditions: Homo sapiens, 1.5 h; MCF7 cells, 90 min
Description: AlphaLISA Ultra pAKT Assay
1. MCF-7 cells in Corning 3701 plate and incubate for 20˜24 hour.
16,000˜20,000 cells will be seeded in 36 μL medium per well.
2. Change the culture medium with fresh medium and incubate for another 90 minutes.
3. […]
4. Aspirate […] by HAMILTON, 10 μL rest per well.
5. Add 10 μL 2× lysis buffer using HAMILTON; total volume in wells is 20 μL. Allow cells to shake for 30 min. Cover plate by plastic foil and store plate at −80° C. up to analysis.
6. Thaw cell lysate at RT and transfer 10 ul lysate to assay plate (Optiplate-384).
7. Add 5 μL acceptor beads into assay plate and incubation for 2 hours
8. Add 5 μL donor beads and incubation for 2 hours
9. Count the plate by EnSpire Multimode Plate Reader

[3] = test system: mTORC1 over mTORC2; assay: mTORC1 selectivity over mTORC2 at 24 hrs (Western blot based pS6K1 and pAKT assay); format: cell-based; conditions: 24 hrs
[4] = Solubility in 100 mM phosphate buffer (pH 7.4); format: physicochemical; conditions: pH 7.4, aqueous buffer
Excerpt: The compound numbers correspond to the compound numbers in Table 1.

[5] = test system: mTORC1 pathway in tuberous sclerosis 2 (TSC2) positive (TSC+/+) MEF cells; assay: Western blot, mTORC1 pathway in TSC+/+ MEF cells; format: cell-based, mouse; conditions: 24 hours
Description: (§1) The methods employed were substantially similar to those described above. Compounds were evaluated in PC3 cells, Jurkat cells, wild-type mouse embryotic fibroblast (MEF) cells, tuberous sclerosis 2 (TSC2) negative (TSC −/−) MEF cells, and tuberous sclerosis 2 (TSC2) positive (TSC +/+) MEF cells. Cells were incubated with compounds of the present invention for various time periods (e.g., 5 minutes, 15 minutes, 30 minutes, 90 minutes, 24 hours, or 48 hours), and evaluated according to known methodologies, such as those herein described.

[6] = test system: mTORC2 (Akt phosphorylation) in TSC+/+ MEF cells; assay: Western blot, mTORC2 pathway (pAkt) in TSC+/+ MEF cells; format: cell-based, mouse; conditions: 24 hours
Description: as §1

[7] = test system: mTORC2 pathway (Akt phosphorylation) in PC3 cells; assay: Western blot, mTORC2 pathway (pAkt) in PC3 cells; format: cell-based; conditions: 24 hours
How it was run: (§2)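 Triton lysates analysed by Western blot for pS6K1 and pAkt, detected with IRDye 800 anti-rabbit secondary on a Li-Cor imager.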

[8] = test system: mTORC1 pathway (pS6K1 T389) in PC3 cells; assay: Western blot, mTORC1 pathway (pS6K1) in PC3 cells; format: cell-based; conditions: PC3 cells, 24 hours
How it was run: as §2

[9] = test system: 4E-BP1 phosphorylation in PC3 cells; assay: Western blot, 4E-BP1 phosphorylation in PC3 cells; format: cell-based; conditions: 24 hours

Structure (SMILES)	IC50 [1]	IC50 [2]	mTORC1 selective @ 24 hrs [3]	solubility [4]	inhibition of the mTORC1 pathway [5]	inhibition of mTORC2 (Akt phosphorylation) [6]	inhibition of mTORC2 (Akt phosphorylation) [7]	inhibition of the mTORC1 pathway [8]	inhibition of 4E-BP1 phosphorylation [9]
CO[C@@H]1C[C@H](C[C@@H](C)[C@@H]2CC(=O)[C@H](C)/C=C(\C)[C@@H](O)[C@@H](OC)C(=O)[C@H](C)C[C@H](C)/C=C/C=C/C=C(\C)[C@@H](OCCOCCO)C[C@@H]3CC[C@@H](C)[C@@](O)(O3)C(=O)C(=O)N3CCCC[C@H]3C(=O)O2)CC[C@H]1O [I-20]	0.1 to 1 nM	≥ 100 nM	YES	30 to 60 µM (≈ 29.6 to 59.3 µg/mL)	moderate concentration dependent inhibition	do not inhibit			
CO[C@@H]1C[C@H](C[C@@H](C)[C@@H]2CC(=O)[C@H](C)/C=C(\C)[C@@H](O)[C@@H](OC)C(=O)[C@H](C)C[C@H](C)/C=C/C=C/C=C(\C)C(OCCOCCOCCOCCOCCOCCOCCOCCOCCO)C[C@@H]3CC[C@@H](C)[C@@](O)(O3)C(=O)C(=O)N3CCCC[C@H]3C(=O)O2)CC[C@H]1O (stereo partly drawn) [I-97, (21E,23E,25E,26E,46R,47S,48R,49R,51S,53S,56S,57R,58R,67R)-57, 67-dihydroxy-55-[2-[2-[2-[2-[2-[2-[2-[2-(2-hydroxyethoxy)ethoxy]ethoxy]ethoxy]ethoxy]ethoxy]ethoxy]ethoxy]ethoxy]-56-[(1R)-2-[(1S,3R,4R)-4-hydroxy-3-methoxy-cyclohexyl]-1-methyl-ethyl]-58-methoxy-46, 47,48,49,59,60-hexamethyl-78,79-dioxa-68-azatricyclohexatriaconta-21, 23,25(59),26(60)-tetraene-61,62,63,64,65-pentone]	1 to 10 nM		YES		modest concentration dependent inhibition	do not inhibit	do not inhibit		
CO[C@@H]1C[C@H](C[C@@H](C)[C@@H]2CC(=O)[C@H](C)/C=C(\C)[C@@H](O)[C@@H](OC)C(=O)[C@H](C)C[C@H](C)/C=C/C=C/C=C(\C)C(OCP(=O)(CO)CO)C[C@@H]3CC[C@@H](C)[C@@](O)(O3)C(=O)C(=O)N3CCCC[C@H]3C(=O)O2)CC[C@H]1O (stereo partly drawn) [I-106, (21E,23E,25E,26E,31R,32S,33R,34R,36S,38S,41S,42R,43R,52R)-40-[bis(hydroxymethyl)phosphorylmethoxy]-42,52-dihydroxy-4I-[(1R)-2-[(1S,3R,4R)-4-hydroxy-3-methoxy-cyclohexyl]-1-methyl-ethyl]-43-methoxy-31, 32,33,34,44,45-hexamethyl-65,66-dioxa-53-azatricyclohexatriaconta-21, 23,25(44),26(45)-tetraene-46,47,48,49,50-pentone]	0.1 to 1 nM		YES				do not inhibit	strong inhibition	no inhibition
CO[C@@H]1C[C@H](C[C@@H](C)[C@@H]2CC(=O)[C@H](C)/C=C(\C)[C@@H](O)[C@@H](OC)C(=O)[C@H](C)C[C@H](C)/C=C/C=C/C=C(\C)[C@@H](OCCOCCOCCO)C[C@@H]3CC[C@@H](C)[C@@](O)(O3)C(=O)C(=O)N3CCCC[C@H]3C(=O)O2)CC[C@H]1OCCO [I-110, (21E,23E,25E,26E,36R,37S,38R,39R,41S,43S,45S,46S,47R,48R,57R)-47, 57-dihydroxy-45-[2-[2-(2-hydroxyethoxy)ethoxy]ethoxy]-46-[(1R)-2-[(1S,3R, 4R)-4-(2-hydroxyethoxy)-3-methoxy-cyclohexyl]-1-methyl-ethyl]-48-methoxy-36,37,38,39,49,50-hexamethyl-68, 69-dioxa-58-azatricyclohexatriaconta-21,23,25(49),26(50)-tetraene-51, 52,53,54,55-pentone]	0.1 to 1 nM		YES		moderate concentration dependent inhibition	do not inhibit			
CO[C@@H]1C[C@H](C[C@@H](C)[C@@H]2CC(=O)[C@H](C)/C=C(\C)[C@@H](O)[C@@H](OC)C(=O)[C@H](C)C[C@H](C)/C=C/C=C/C=C(\C)C(OCCCCCO)C[C@@H]3CC[C@@H](C)[C@@](O)(O3)C(=O)C(=O)N3CCCC[C@H]3C(=O)O2)CC[C@H]1O (stereo partly drawn) [I-113, (21E,23E,25E,26E,33R,34S,35R,36R,38S,40S,43S,44R,45R,54R)-44, 54-dihydroxy-43-[(1R)-2-[(1S,3R,4R)-4-hydroxy-3-methoxy-cyclohexyl]-1-methyl-ethyl]-42-(5-hydroxypentoxy)-45-methoxy-33, 34,35,36,46,47-hexamethyl-65,66-dioxa-55-azatricyclohexatriaconta-21, 23,25(46),26(47)-tetraene-48,49,50,51,52-pentone]	0.1 to 1 nM		YES				do not inhibit	strong inhibition	no inhibition
CO[C@@H]1C[C@H](C[C@@H](C)[C@@H]2CC(=O)[C@H](C)/C=C(\C)[C@@H](O)[C@@H](OC)C(=O)[C@H](C)C[C@H](C)/C=C/C=C/C=C(\C)C(OC[C@H]3CO[C@@H](CO)CO3)C[C@@H]3CC[C@@H](C)[C@@](O)(O3)C(=O)C(=O)N3CCCC[C@H]3C(=O)O2)CC[C@H]1O (stereo partly drawn) [I-118, (23E,25E,27E,28E,32R,33S,34R,35R,36S,39S,41S,45R,46R,55R)-45, 55-dihydroxy-41-[(1R)-2-[(1S,2R,3R)-3-hydroxy-2-methoxy-cyclohexyl]-1-methyl-ethyl]-40-[[(25, 5S)-5-(hydroxymethyl)-1,4-dioxan-2-yl]methoxy]-46-methoxy-32,33,34,35,47,48-hexamethyl-68, 69-dioxa-56-azatricyclohexatriaconta-23,25,27(47),28(48)-tetraene-49,50,51,52,53-pentone]	1 to 10 nM		YES				do not inhibit	moderate concentration dependent inhibition; also recorded: strong inhibition	no inhibition

Reference: patent US11944605B2, “Rapamycin analogs and uses thereof” (Janssen Pharmaceutica NV, priority 2018, dated 2024)
